The values below come from US7105488B1, “G protein-coupled receptor antagonists” (priority 1998, dated 2006).

Where a SMILES comes first, the peptide text is derived from it.

Holding throughout (type): cell-based
Assay [1] addresses T1, CCKAR (Rattus norvegicus, UniProt P30551).
T1 construct: expressed in transfected cells; host or cells: CHO cells
T1 sequence (P30551 1-444): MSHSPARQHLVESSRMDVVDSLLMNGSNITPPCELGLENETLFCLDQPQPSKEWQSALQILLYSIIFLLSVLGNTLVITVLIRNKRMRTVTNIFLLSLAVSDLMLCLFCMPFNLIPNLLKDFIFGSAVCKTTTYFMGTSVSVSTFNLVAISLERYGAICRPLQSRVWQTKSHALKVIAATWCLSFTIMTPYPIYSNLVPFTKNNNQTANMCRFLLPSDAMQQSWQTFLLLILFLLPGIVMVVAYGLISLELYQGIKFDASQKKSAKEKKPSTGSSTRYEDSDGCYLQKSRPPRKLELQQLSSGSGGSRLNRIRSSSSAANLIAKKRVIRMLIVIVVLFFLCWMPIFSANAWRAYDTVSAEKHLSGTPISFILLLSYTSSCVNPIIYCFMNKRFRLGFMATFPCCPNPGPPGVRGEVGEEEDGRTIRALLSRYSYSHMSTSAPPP
The assay is described as follows: Inhibition of CCK-8-induced intracellular calcium release in CHO cells stably transfected with rat CCKAR. The protocol:
The activity of peptides from the CCKAR transmembrane domain were tested in transfected CHO cells that stably express rat CCKAR (Tarasova et al. (1997), J. Biol. Chem. 272: 14817–14824). Sulfated cholecystokinin octapeptide was the CCKAR agonist. Determination of intracellular calcium release was performed as described in example 1 above.
None of CCKAR-derived peptides served as antagonists of chemokine receptors and none could inhibit HIV-1 infection. The activity of the antagonists in inhibiting signaling through the receptor was compared to the ability to prevent agonist binding (Table 4). Inhibition of signaling was assessed in CCK-8 evoked intracellular calcium release in FURA-2/AM treated CHO cells stably transfected with rat CCKAR (Tarasova, et al. (1997) J. Biol. Chem. 272:14817). Inhibition of ligand binding was measured with the use of a fluorescent agonist, rhodamine green CCK-8 (RG-CCK-8) and quantitative confocal laser scanning microscopy (Tarasova, et al. (1997) J. Biol. Chem. 272:14817). Peptides derived from the first, second, and sixth transmembrane domains inhibited CCK-induced signaling through the CCKAR receptor.
For orientation: Calcium flux is commonly read through the fluorescence of an indicator in the cells.

The test system of assay [2] is LAV strain of HIV-1. The assay is described as follows: Anti-HIV-1 assay, CEM-SS cells infected with LAV strain, p24 ELISA. As to conditions: FIG. 1. The protocol: The ability of synthetic CXCR4-derived peptides of Table 1 to inhibit HIV-1 infection of CEM-SS cells was tested using an LAV strain of the virus that is known to utilize CXCR4 as a co-receptor. Anti-HIV-1 assay. Buckheit et al. (1993) Antiviral Research 21: 247. The CEM-SS cells were maintained in RPMI 1640 medium containing 10% fetal bovine serum. The cells were placed in each well of a 96-well microtiter plate to a density of 5×10^3 cells per well. The cells were infected with HIV-1 virus at a multiplicity of infection (MOI) previously determined to produce maximal level of viral production at 6 days post infection (MOI of 0.01).
Serial half-log dilutions of test compound were added to appropriate wells in triplicate to evaluate their ability to inhibit HIV-1 infection. AZT was used in parallel as a positive control. Following 6 days of incubation at 37° C., the presence and relative abundance of viral p24 protein was determined by ELISA in cell-free supernatants derived from each well of the microtiter plate. The p24 ELISA kit was purchased from the AIDS Vaccine Program, NCI, FCRDC (Frederick, Md.) and the assay was performed according to the manufacturer's instructions.

For assay [3], the target named is CXCR4 receptor (Homo sapiens, UniProt P61073). The assay is described as follows: Inhibition of SDF-1α-induced intracellular calcium release (Fura-2/AM) in HeLa and U87 cells. As to conditions: for Concentration, required for inhibition of signal transduction: SDF-1α-induced intracellular calcium release, Table 2. The protocol: The effect of the peptides on CXCR4-mediated calcium fluxes in HeLa cells that naturally express the CXCR4 receptor and U87 cells stably expressing the CXCR4 receptor was tested as follows. Cells grown on Nunc cover glass chamber slides were incubated with 1 micromolar Fura-2/AM for 20 min in a CO2-incubator, rinsed with PBS and mounted on the stage of a Zeiss Axiovert inverted microscope. [Ca^2+]i measurements were performed using an Attofluor digital imaging system (Atto Instruments, Rockville, Md.). Fluorescence of Fura was excited at alternating wavelength of 340 and 380 nm. […] Calibrations of [Ca^2+]i signals were performed using Ca^2+ standards containing 1 micromolar Fura. CXCR4 antagonists were tested on HeLa cells and U87 cells. Stromal cell-derived factor-1α (SDF-1α) was used as a specific CXCR4 agonist. CCR5 antagonists, which were used in selectivity studies as described below, were tested on HEK (human kidney […]) cells stably expressing the CCR5 receptor and RANTES was used as an agonist. The antagonist activity of the peptides was evaluated by measuring the inhibition of agonist-evoked intracellular Ca^2+i release. These measurements were carried out in Fura-2/AM-treated cells, utilizing an Attofluor digital imaging system as described above. The agonist was SDF-1 α.
Sequence of CXCR4 receptor (P61073 whole entry): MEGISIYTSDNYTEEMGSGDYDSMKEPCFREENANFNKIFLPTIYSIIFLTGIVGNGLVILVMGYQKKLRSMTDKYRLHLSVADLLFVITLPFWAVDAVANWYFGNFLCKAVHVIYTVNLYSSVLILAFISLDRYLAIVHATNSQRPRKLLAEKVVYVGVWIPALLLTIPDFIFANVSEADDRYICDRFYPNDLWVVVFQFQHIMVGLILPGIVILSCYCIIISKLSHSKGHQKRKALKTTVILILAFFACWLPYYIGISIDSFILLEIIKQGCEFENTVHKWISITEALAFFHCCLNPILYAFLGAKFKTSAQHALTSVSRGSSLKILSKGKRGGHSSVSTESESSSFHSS

For assay [4], the system named is HIV-1RF. Description: Anti-HIV-1 cytoprotection assay, CEM-SS cells infected with HIV-1RF. As to conditions: HIV-1 strain RF, FIG. 2.
Assay [5] concerns the target T2, CCR5 receptor (Homo sapiens, UniProt P51681).
T2 construct: expressed in transfected cells
The assay is described as follows: Inhibition of agonist (RANTES)-evoked intracellular calcium release through CCR5. As to conditions: U87 cells as printed. Here is the method:
CCR5 antagonists, which were used in selectivity studies as described below, were tested on HEK (human kidney […]) cells stably expressing the CCR5 receptor and RANTES was used as an agonist. The antagonist activity of the peptides was evaluated by measuring the inhibition of agonist-evoked intracellular Ca^2+i release. These measurements were carried out in Fura-2/AM-treated cells, utilizing an Attofluor digital imaging system as described above. The agonist was SDF-1 α.

T2 sequence (P51681 whole entry): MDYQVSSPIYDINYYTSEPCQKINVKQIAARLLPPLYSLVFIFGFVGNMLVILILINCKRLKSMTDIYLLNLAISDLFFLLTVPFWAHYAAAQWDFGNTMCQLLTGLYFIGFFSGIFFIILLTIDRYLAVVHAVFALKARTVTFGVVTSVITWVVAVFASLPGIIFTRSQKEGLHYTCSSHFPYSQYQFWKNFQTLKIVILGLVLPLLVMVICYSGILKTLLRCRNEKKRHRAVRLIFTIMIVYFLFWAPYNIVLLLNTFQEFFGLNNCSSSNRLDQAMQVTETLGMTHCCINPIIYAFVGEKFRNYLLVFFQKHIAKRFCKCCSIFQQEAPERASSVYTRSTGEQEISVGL

In the case of `CSCC[C@H](NC(=O)[C@H](CC(C)C)NC(=O)[C@H](CC(=O)O)NC(=O)[C@H](CO)NC(=O)[C@@H](NC(=O)[C@H](C)NC(=O)[C@H](CC(C)C)NC(=O)[C@H](CO)NC(=O)[C@H](CC(C)C)NC(=O)[C@H](CC(C)C)NC(=O)[C@@H](N)Cc1ccccc1)C(C)C)C(=O)N[C@@H](CC(C)C)C(=O)N[C@@H](CS)C(=O)N[C@@H](CC(C)C)C(=O)N[C@@H](Cc1ccccc1)C(=O)N[C@@H](CS)C(=O)N[C@@H](CCSC)C(=O)N1CCC[C@H]1C(=O)N[C@@H](Cc1ccccc1)C(=O)N[C@@H](CC(N)=O)C(=O)N[C@@H](CC(C)C)C(=O)N1CCC[C@H]1C(=O)O` [CCKAR-TM-2-1] (H-FLLSLAVSDLMLCLFCMPFNLP-OH), the “Concentration, required for inhibition of signaling” value in assay [1] (CCK-8-induced intracellular calcium release) was determined as 2 µM. Besides, in assay [1] (signaling versus RG-CCK-8 binding), the “Potency in inhibition of ligand signaling compared with binding” value was “comparable potencies”.
With `CC[C@H](C)[C@H](NC(=O)[C@@H](NC(=O)[C@H](Cc1ccccc1)NC(=O)[C@H](CC(C)C)NC(=O)[C@@H](N)CC(C)C)C(C)C)C(=O)N[C@H](C(=O)N[C@@H](CC(C)C)C(=O)N1CCC[C@H]1C(=O)N[C@@H](Cc1ccccc1)C(=O)N[C@@H](Cc1c[nH]c2ccccc12)C(=O)N[C@@H](C)C(=O)N[C@H](C(=O)N[C@@H](CC(=O)O)C(=O)N[C@@H](C)C(=O)N[C@H](C(=O)N[C@@H](C)C(=O)N[C@@H](CC(N)=O)C(=O)N[C@@H](Cc1c[nH]c2ccccc12)C(=O)N[C@@H](Cc1ccc(O)cc1)C(=O)N[C@@H](Cc1ccccc1)C(=O)NCC(=O)N[C@@H](CC(N)=O)C(=O)N[C@@H](CC(=O)O)C(=O)N[C@@H](CC(=O)O)C(=O)O)C(C)C)C(C)C)[C@@H](C)O` [Peptide F-2-2] (H-LLFVITLPFWAVDAVANWYFGNDD-OH; N-terminus and C-terminus assumed), in assay [2], the “Concentration that completely inhibited infection” value came out at 5 µM. For the same molecule, in assay [3], the “Concentration at which signal transduction was completely blocked” value was found to be 0.2 µM and the “Concentration, required for inhibition of signal transduction” value turned out to be 0.2 µM. Also, the “Concentration, required for complete inhibition of [Ca^2+I] release” value in assay [3] (TM2-derived peptides, Table 3) amounted to 0.2 µM.
Regarding `CC[C@H](C)[C@H](NC(=O)[C@H](Cc1ccccc1)NC(=O)[C@H](CC(=O)O)NC(=O)[C@@H]1CCCN1C(=O)[C@@H](NC(=O)[C@@H](NC(=O)[C@H](CC(C)C)NC(=O)[C@H](CC(C)C)NC(=O)[C@H](CC(C)C)NC(=O)[C@H](C)NC(=O)[C@@H]1CCCN1C(=O)[C@@H](NC(=O)[C@H](Cc1c[nH]c2ccccc12)NC(=O)[C@@H](NC(=O)CNC(=O)[C@@H](NC(=O)[C@H](Cc1ccc(O)cc1)NC(=O)[C@@H](N)C(C)C)C(C)C)C(C)C)[C@@H](C)CC)[C@@H](C)O)[C@@H](C)CC)C(=O)N[C@@H](Cc1ccccc1)C(=O)N[C@@H](C)C(=O)N[C@@H](CC(N)=O)C(=O)N[C@@H](CC(=O)O)C(=O)N[C@@H](CC(=O)O)C(=O)O` [Peptide F-4-2] (H-VYVGVWIPALLLTIPDFIFANDD-OH; N-terminus and C-terminus assumed), the “Concentration, required for inhibition of signal transduction” value in assay [3] was 5 µM. The “Concentration that completely inhibited infection” value in assay [4] worked out at 1 µM.
With “LFFL LTVPFWAHYAAAQWDFGDD (LFFLLTVPFWAHYAAAQWDFGDD; CCR5-TM-2-2 GPCR CCR5)”, in assay [5], the “Concentration at which agonist induced signaling of the receptor was completely abolished” value was determined as 500 nM. Besides, the “Antagonist activity on CXCR4 signaling, in words” value in assay [3] is on record as “no effect”.
